In brackets after ≈: the same amount, converted by molar mass. Blank lines part the entries; values can stand above or below the compound they belong to.
What was measured:
Assay type in all cases: cell-based
[1] = test system: Proteus vulgaris GN-76; assay: Minimum inhibitory concentration against Proteus vulgaris GN-76; conditions: GN76
[2] = test system: Staphylococcus aureus JC-1; assay: Minimum inhibitory concentration against Staphylococcus aureus JC-1; conditions: JC1
[3] = test system: Escherichia coli JC-2; assay: Minimum inhibitory concentration against Escherichia coli JC-2; conditions: JC2
[4] = test system: Pseudomonus aeruginsoa Y-1; assay: Minimum inhibitory concentration against Pseudomonus aeruginsoa Y-1; conditions: Pseudomonas aeruginosa, Y1
[5] = test system: Pseudomonus aeruginosa GN1036; assay: Minimum inhibitory concentration against Pseudomonus aeruginosa GN1036; conditions: Pseudomonas aeruginosa
[6] = test system: Klebsiella pneumoniae KC-1; assay: Minimum inhibitory concentration against Klebsiella pneumoniae KC-1; conditions: KC1

- MIC [1]: 0.05 mg/L (≈ 0.11 µM)
- MIC [2]: 6.25 mg/L (≈ 13.7 µM)
- MIC [3]: 0.1 mg/L (≈ 0.22 µM)
- MIC [4]: 12.5 mg/L (≈ 27.4 µM)
- MIC [5]: 12.5 mg/L (≈ 27.4 µM)
Compound: CO/N=C(\C(=O)N[C@@H]1C(=O)N2C(C(=O)O)=C(COC(C)=O)CS[C@H]12)c1csc(N)n1 [Cefotaxime, reference compound]

Compound: CC(=O)OCC1=C(C(=O)O)N2C(=O)[C@@H](NC(=O)/C(=N\OCC(=O)c3ccc(OC(C)=O)c(OC(C)=O)c3)c3coc(N)n3)[C@H]2SC1 [Example 1, 7β-[2-(2-aminooxazol-4-yl)-2-Z-(3,4-diacetoxybenzoylmethoxyimino)acetamido]cephalosporanic acid]
- MIC [1]: 1.56 mg/L (≈ 2.37 µM)
- MIC [6]: 0.2 mg/L (≈ 0.303 µM)
- MIC [2]: 3.12 mg/L (≈ 4.73 µM)
- MIC [3]: 0.78 mg/L (≈ 1.18 µM)
- MIC [4]: 0.1 mg/L (≈ 0.152 µM)
- MIC [5]: 0.78 mg/L (≈ 1.18 µM)

Compound: CC(=O)Oc1ccc(C(=O)CO/N=C(\C(=O)N[C@@H]2C(=O)N3C(C(=O)O)=C(CSc4nnnn4C)CS[C@H]23)c2coc(N)n2)cc1OC(C)=O [Example 2, 7β-[2-(2-aminooxazol-4-yl)-2-Z-(3,4-diacetoxybenzoylmethoxyimino)acetamido]-3-(1-methyl-1H-tetrazol-5-yl)thiomethyl-3-cephem-4-carboxylic acid]
- MIC [1]: 1.56 mg/L (≈ 2.18 µM)
- MIC [6]: 0.05 mg/L (≈ 0.0699 µM)
- MIC [2]: 3.12 mg/L (≈ 4.36 µM)
- MIC [3]: 0.2 mg/L (≈ 0.279 µM)
- MIC [4]: 0.05 mg/L (≈ 0.0699 µM)
- MIC [5]: 0.2 mg/L (≈ 0.279 µM)

Compound: CC(=O)Oc1ccc(C(=O)CO/N=C(\C(=O)N[C@@H]2C(=O)N3C(C(=O)O)=C(CSc4nnnn4CC(=O)O)CS[C@H]23)c2coc(N)n2)cc1OC(C)=O [Example 3, 7β-[2-(2-aminooxazol-4-yl)-2-Z-(3,4-diacetoxybenzoylmethoxyimino)]acetamido-3-(1-carboxymethyl-1H-tetrazol-5-yl)thiomethyl-3-cephem-4-carboxylicacid]
- MIC [1]: 1.56 mg/L (≈ 2.05 µM)
- MIC [6]: 0.05 mg/L (≈ 0.0658 µM)
- MIC [2]: 12.5 mg/L (≈ 16.5 µM)
- MIC [3]: 0.2 mg/L (≈ 0.263 µM)
- MIC [4]: < 0.05 mg/L
- MIC [5]: 0.2 mg/L (≈ 0.263 µM)

Compound: CC(=O)OCC1=C(C(=O)O)N2C(=O)[C@@H](NC(=O)/C(=N\OC(=O)c3ccc(OC(C)=O)c(OC(C)=O)c3)c3coc(N)n3)[C@H]2SC1 [Example 4, 7β-[2-(2-aminooxazol-4-yl)-2-Z-(3,4-diacetoxybenzoyloxyimino)acetamido]cephalosporanic acid]
- MIC [1]: 0.39 mg/L (≈ 0.604 µM)
- MIC [6]: 0.2 mg/L (≈ 0.31 µM)
- MIC [2]: 1.56 mg/L (≈ 2.42 µM)
- MIC [3]: 0.2 mg/L (≈ 0.31 µM)
- MIC [4]: 0.1 mg/L (≈ 0.155 µM)
- MIC [5]: 0.78 mg/L (≈ 1.21 µM)

Compound: CC(=O)Oc1ccc(C(=O)O/N=C(\C(=O)N[C@@H]2C(=O)N3C(C(=O)O)=C(CSc4nnnn4C)CS[C@H]23)c2coc(N)n2)cc1OC(C)=O [Example 5, 7β-[2-(2-aminooxazol-4-yl)-2-Z-(3,4-diacetoxybenzoyloxyimino)acetamido]-3-(1-methyl-1H-tetrazol-5-yl)thiomethyl-3-cephem-4-carboxylic acid]
- MIC [1]: 0.39 mg/L (≈ 0.556 µM)
- MIC [6]: 0.2 mg/L (≈ 0.285 µM)
- MIC [2]: 1.56 mg/L (≈ 2.22 µM)
- MIC [3]: 0.39 mg/L (≈ 0.556 µM)
- MIC [4]: 0.1 mg/L (≈ 0.143 µM)
- MIC [5]: 0.39 mg/L (≈ 0.556 µM)

Compound: CC(=O)Oc1ccc(C(=O)O/N=C(\C(=O)N[C@@H]2C(=O)N3C(C(=O)O)=C(CSc4nnc(C)s4)CS[C@H]23)c2coc(N)n2)cc1OC(C)=O [Example 6, 7β-[2-(2-aminooxazol-4-yl)-2-Z-(3,4-diacetoxybenzoyloxyimino)acetamido]-3-(2-methyl-1,3,4-thiadiazol-5-yl)thiomethyl-3-cephem-4-carboxylic acid]
- MIC [1]: 0.2 mg/L (≈ 0.279 µM)
- MIC [6]: 0.05 mg/L (≈ 0.0697 µM)
- MIC [2]: 3.12 mg/L (≈ 4.35 µM)
- MIC [3]: 0.2 mg/L (≈ 0.279 µM)
- MIC [4]: 0.1 mg/L (≈ 0.139 µM)
- MIC [5]: 0.39 mg/L (≈ 0.543 µM)

Compound: CC(=O)Oc1ccc(C(=O)O/N=C(\C(=O)N[C@@H]2C(=O)N3C(C(=O)O)=C(CSc4nnnn4CC(=O)O)CS[C@H]23)c2coc(N)n2)cc1OC(C)=O [Example 7, 7β-[2-(2-aminooxazol-4-yl)-2-Z-(3,4-diacetoxybenzoyloxyimino)acetamido]-3-(1-carboxymethyl-1H-tetrazol-5-yl)thiomethyl-3-cephem-4-carboxylic acid]
- MIC [1]: 0.1 mg/L (≈ 0.134 µM)
- MIC [6]: < 0.05 mg/L
- MIC [2]: 12.5 mg/L (≈ 16.8 µM)
- MIC [3]: 0.05 mg/L (≈ 0.0671 µM)
- MIC [4]: < 0.05 mg/L
- MIC [5]: 0.05 mg/L (≈ 0.0671 µM)

Compound: CC(=O)Oc1cc(C(=O)O/N=C(\C(=O)N[C@@H]2C(=O)N3C(C(=O)O)=C(CSc4nnnn4C)CS[C@H]23)c2coc(N)n2)cc(OC(C)=O)c1OC(C)=O [Example 8, 7β-[2-(2-aminooxazol-4-yl)-2-Z-(3,4,5-triacetoxybenzoyloxyimino)acetamido]-3-(1-methyl-1H-tetrazol-5-yl)thiomethyl-3-cephem-4-carboxylic acid]
- MIC [1]: 0.39 mg/L (≈ 0.513 µM)
- MIC [6]: 0.1 mg/L (≈ 0.132 µM)
- MIC [2]: 1.56 mg/L (≈ 2.05 µM)
- MIC [3]: 0.1 mg/L (≈ 0.132 µM)
- MIC [4]: 0.1 mg/L (≈ 0.132 µM)
- MIC [5]: 0.39 mg/L (≈ 0.513 µM)

- MIC [1]: 0.2 mg/L (≈ 0.263 µM)
- MIC [6]: 0.05 mg/L (≈ 0.0656 µM)
- MIC [2]: 3.12 mg/L (≈ 4.1 µM)
- MIC [3]: 0.2 mg/L (≈ 0.263 µM)
- MIC [4]: 0.05 mg/L (≈ 0.0656 µM)
- MIC [5]: 0.2 mg/L (≈ 0.263 µM)
Compound: CCOC(=O)Oc1ccc(C(=O)O/N=C(\C(=O)N[C@@H]2C(=O)N3C(C(=O)O)=C(CSc4nnnn4C)CS[C@H]23)c2coc(N)n2)cc1OC(=O)OCC [Example 9, 7β-[2-(2-aminooxazol-4-yl)-2-Z-(3,4-diethoxycarbonyloxybenzoyloxyimino)acetamido]-3-(1-methyl-1H-tetrazol-5-yl)thiomethyl-3-cephem-4-carboxylic acid]

Compound: CC(=O)Oc1cc(C(=O)O/N=C(\C(=O)N[C@@H]2C(=O)N3C(C(=O)O)=C(CSc4nnnn4CC(=O)O)CS[C@H]23)c2coc(N)n2)cc(OC(C)=O)c1OC(C)=O [Example 10, 7β-[2-(2-aminooxazol-4-yl)-2-Z-(3,4,5-triacetoxybenzoyloxyimino)acetamido]-3-(1-carboxymethyl-1H-tetrazol-5-yl)thiomethyl-3-cephem-4-carboxylic acid]
- MIC [1]: 0.05 mg/L (≈ 0.0622 µM)
- MIC [6]: 0.2 mg/L (≈ 0.249 µM)
- MIC [2]: 6.25 mg/L (≈ 7.78 µM)
- MIC [3]: 0.05 mg/L (≈ 0.0622 µM)
- MIC [4]: 0.1 mg/L (≈ 0.124 µM)
- MIC [5]: 0.39 mg/L (≈ 0.485 µM)

— patent US4691014A, “Cephalosporin compounds” (Kaken Pharmaceutical Co., Ltd., priority 1984, dated 1987)
